These results are taken from patent US10314827B2, “Methods of use of cyclopamine analogs” (Infinity Pharmaceuticals, Inc., priority 2006, dated 2019).

For one experiment, the system named is RS4-11. Description: ALL colony formation in methylcellulose, RS4-11. The class given is cell-based. To be noted: RS4-11, treated 72 hours. On the procedure: (§1) The effect of Compound 42 on the growth of two of these cell lines, treated in vitro for 72 hours, was also studied. Following treatment, cells were washed and plated in methylcellulose.
The next experiment concerns L428. Description: Hodgkin's disease colony formation in methylcellulose, L428. The class given is cell-based, human. To be noted: L428 (HD), 1.0 um, 72 hours. On the procedure: The ability of Compound 42 to inhibit the in vitro growth of human cell lines derived from patients with non-Hodgkin's lymphoma (cell lines RL and Jeko-1) and Hodgkin's disease (cell line L428) was studied. Each of the cell lines was treated for 72 hours with Compound 42 (1.0 um) followed by plating in methylcellulose.

In a further experiment the test system is BXPC-3 cells. Nature of the experiment: Pancreatic cancer model: subcutaneous BXPC-3 tumors in mice. Format: in vivo, human. To be noted: orally 40 mg/kg/day, 25 daily doses, p=0.0309. On the procedure: (§2) The activity of Compound 42 was further tested in a human pancreatic model: BXPC-3 cells were implanted subcutaneously into the flanks of the right legs of mice. On day 42 post-tumor implant, the mice were randomized into two groups to receive either Vehicle (30% HPBCD) or Compound 42. Compound 42 administered orally at 40 mg/kg/day. […] At the end of the study, the tumors were harvested 4 hours post the last dose to evaluate an on target response by q-RT-PCR analysis of the HH pathway genes.

Experiment [1] relates to Gli-responsive luciferase reporter. Description: Gli-responsive luciferase reporter transient transfection assay, Nalm-6. Format: cell-based. To be noted: Nalm-6, 1 um; vehicle alone 8.42. The source says:
(§3) The activity of Compound 42 (1 um) against three pre-B cell acute lymphocytic leukemia cell lines (REH, RS4-11, and Nalm-6) was studied, using a transient transfection assay in which a Gli-responsive luciferase reporter was transiently transfected into cells. Treatment with Compound 42 repressed luciferase activity compared to a vehicle treated control (Table 4).
Background: A reporter such as luciferase makes a cellular process visible.

The next experiment concerns murine Gli-1. Nature of the experiment: q-RT-PCR of HH pathway genes in harvested BXPC-3 tumors, murine Gli-1. The class given is in vivo. To be noted: tumors harvested 4 hours post last dose, 40 mg/kg/day orally, vs vehicle group. How it is done:
as §2

In experiment [2] the test system is Gli-responsive luciferase reporter. Description: Gli-responsive luciferase reporter transient transfection assay, RS4-11. Format: cell-based. To be noted: RS4-11, 1 um; vehicle alone 12.97.
From the text: as §3

A further experiment deals with human Gli-1. Description: q-RT-PCR of HH pathway genes in harvested BXPC-3 tumors, human Gli-1. The class given is in vivo. To be noted: tumors harvested 4 hours post last dose, 40 mg/kg/day orally. How it is done:
as §2

Another experiment relates to REH. Nature of the experiment: ALL colony formation in methylcellulose, REH. The class given is cell-based. To be noted: treated 72 hours. How it is done: as §1

On to `CC1=C2C[C@H]3[C@@H](CC[C@@H]4C[C@H](NS(C)(=O)=O)CC[C@@]43C)[C@@H]2CC[C@@]2(C1)O[C@@H]1C[C@H](C)CN[C@H]1[C@H]2C` [Compound 42], for which the “colony formation with Compound (relative to vehicle control) - 1° plating” value stood at 71 in the experiment with RS4-11 and 63 with REH. For the same molecule, the “colony formation with Compound (relative to vehicle control) - 2° plating” value in the experiment on RS4-11 (replating of colonies) is on record as 11; with REH (replating of colonies), 9. For the same molecule, the “% colony formation with Compound 42 (relative to vehicle control)” value with L428 came to 21.4%. Also, the “reduction of tumor volume growth compared to vehicle control” value with BXPC-3 cells is 40%. Also, the “Relative luc activity (+Compound)” value in experiment [1] stood at 1.44; in experiment [2] it was 1.31. Besides, the “murine Gli-1 mRNA levels (q-RT-PCR)” value with murine Gli-1 was “robust down-regulation”. Moreover, in the experiment with human Gli-1, the “human Gli-1 modulation (q-RT-PCR)” value was “no modulation”.
